Test results from paper PMC11249646, “Small-Molecule Disruptors of the Interaction between Calcium- and Integrin-Binding Protein 1 and Integrin αIIbβ3 as Novel Antiplatelet Agents” (ACS Pharmacology & Translational Science, 2024).
Like-named read-outs stand apart in the source and are kept apart here.

Target: T1, CIB1 and αIIb interaction (CIB1-GST : F-αIIb peptide) (Homo sapiens, UniProt Q99828)
T1 construct: made in house; host or cells: BL-21 plus RIL cells (E. coli)
T1 sequence (Q99828 1-191): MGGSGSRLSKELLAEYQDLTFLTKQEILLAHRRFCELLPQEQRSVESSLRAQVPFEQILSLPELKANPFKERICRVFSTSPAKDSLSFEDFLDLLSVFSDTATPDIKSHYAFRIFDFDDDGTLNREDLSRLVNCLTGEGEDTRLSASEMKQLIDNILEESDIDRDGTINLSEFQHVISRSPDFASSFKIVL
Test: FP assay, 1536-well qHTS format (primary and confirmatory screen)
Type: binding
Details: for Efficacy (%): negative = inhibition; for Curve Class: negative sign = inhibitory curve; for IC50: read-out: IC50

[1] = qHTS primary screen of LOPAC/NPACT libraries
[2] = qHTS primary screen hits, Table S2
[3] = qHTS primary screen hits, Table S2, several classes where COUNT > 1

Row | Structure (SMILES) | Efficacy (%) [1] [%] | Curve Class [1] | IC50 [1] [µM] | Efficacy (%) [2] [%] | Curve Class [2] | IC50 [2] [µM] | Curve Class [3]
1 | C=C1C(=O)O[C@@H]2[C@H]3O[C@]3(C)CC/C=C(/C)CC[C@@H]12 [NCGC00094250-05] | -19 | -1.2 | 10 | – | – | – | –
2 | O=C(CS)Nc1ccccc1 [NCGC00160366-02] | – | – | – | -44 | -3 | 89.1 | –
3 | Nc1ccc2c3c(cccc13)C(=O)NC2=O [NCGC00015035-07] | – | – | – | -70 | -1.2 | 2.5 | –
4 | N#C/C(=C\c1ccc(O)c(O)c1)C(=O)NCCCNC(=O)/C(C#N)=C/c1ccc(O)c(O)c1 [NCGC00016027-04] | -24 | -1.2 | – | – | – | – | –
5 | CCCCCCCCCCCC[N+](C)(C)CCOc1ccccc1.[Br-] [NCGC00091010-03] | – | – | – | -55 | -3 | 89.1 | –
6 | O=C(Cn1nc(-c2ccc(F)cc2)ccc1=O)NCCc1ccccc1.O=C(O)C(F)(F)F [NCGC00262332-01] | – | – | – | -24 | -2.4 | 56.2 | –
7 | O=C(O)C(F)(F)F.O=C(O)c1ccc(-c2ccc3ncnc(NCc4cccs4)c3c2)o1 [NCGC00189277-01] | – | – | – | -25 | – | 89.1 | -2.4
8 | CCOC(=O)C1=C(C)NC(C)=C(C(=O)OCC)C1c1c(F)c(F)c(F)c(F)c1F [NCGC00186027-01] | -13 | -1.2 | 6.3 | – | – | – | –
9 | Nc1cc(-c2ccncc2)c[nH]c1=O [NCGC00016896-06] | – | – | – | -48 | – | 50.1 | -2.2
10 | COc1ccc(OC)c(-n2c3c(cc(-c4nnn(-c5ccc(Cl)cc5)n4)c2=O)C(=O)CC(C)(C)C3)c1.O=C(O)C(F)(F)F [NCGC00347300-01] | – | – | – | -41 | -3 | 89.1 | –
11 | Nc1ccncc1N [NCGC00167560-02] | – | – | – | -26 | – | 79.4 | -2.4
12 | C[n+]1c2cc(N)ccc2cc2ccc(N)cc21 [NCGC00178831-03] | – | – | – | -101 | -1.3 | 1.1 | –
13 | Cc1cc2nc3c(=O)[nH]c(=O)nc-3n(C[C@H](O)[C@H](O)[C@H](O)CO)c2cc1C [NCGC00091288-05] | – | – | – | -134 | – | 4 | –
14 | Cc1cc(O)cc(Oc2cc(C)c(C(=O)O)c(O)c2)c1 [NCGC00380115-01] | -28 | -2.4 | 56.2 | – | – | – | –
15 | CCn1cc(C(=O)O)c(=O)c2ccc(C)nc21 [NCGC00162271-02] | -10 | -1.4 | 8.9 | – | – | – | –
16 | CCCC1(CCC)CCC2(CCN(CCCN(CC)CC)C2)CC1.Cl [NCGC00379163-01] | -32 | -2.4 | 79.4 | – | – | – | –
17 | Cl.O=C(CCCCCN1CCN(c2ccccc2-c2ccccc2)CC1)NC1CCCc2ccccc21 (stereo not shown) [NCGC00186032-01] | -13 | -1.2 | 25.1 | – | – | – | –
18 | C=C1CCC2C(C)(C)CC(O)CC2(C)C1CCC(C)CCOC(=O)CCC(=O)O (stereo not shown) [NCGC00380160-01] | -24 | -2.4 | 39.8 | – | – | – | –
19 | COCCCOc1ccnc(C[S+]([O-])c2nc3ccccc3[n-]2)c1C.[Na+] (stereo not shown) [NCGC00159518-05] | – | – | – | -54 | – | 42.2 | –
20 | CC(C)(O)CC(=O)NCCn1ccc2ncnc(Nc3ccc(Oc4cccc(C(F)(F)F)c4)c(Cl)c3)c21 [NCGC00346699-06] | -30 | -2.4 | 100 | – | – | – | –

Row | Structure (SMILES) | Efficacy (%) [1] [%] | Curve Class [1] | IC50 [1] [µM] | Efficacy (%) [2] [%] | Curve Class [2] | IC50 [2] [µM] | Curve Class [3]
21 | C=C1c2cccc(O)c2C(O)=C2C(=O)[C@]3(O)C(O)=C(C(N)=O)C(=O)[C@@H](N(C)C)[C@@H]3[C@@H](O)[C@H]12.Cl [NCGC00179358-04] | – | – | – | -53 | – | 56.2 | -2.4
22 | COc1cccc2c1C(=O)c1c(O)c3c(c(O)c1C2=O)C[C@@](O)(C(=O)CO)C[C@@H]3O[C@H]1C[C@H](N)[C@@H](O)[C@H](C)O1 [NCGC00263918-04] | – | – | – | -58 | – | 18.5 | –
23 | C=C1C(=O)O[C@@H]2[C@H]1[C@H](O)C[C@]1(C)[C@@H](O)CC=C(C)[C@@H]21 [NCGC00180848-02] | -29 | -2.4 | 20 | – | – | – | –
24 | COc1cccc2c1C(=O)c1c(O)c3c(c(O)c1C2=O)C[C@@](O)(C(=O)CO)C[C@@H]3O[C@H]1C[C@H](N)[C@H](O[C@@H]2CCCCO2)[C@H](C)O1 [NCGC00167982-02] | – | – | – | -42 | – | 7.7 | –
25 | CN(C)c1cccc(N2CCN(c3nn4c(=O)c5ccccc5nc4s3)CC2)c1.Cl [NCGC00187811-01] | – | – | – | -35 | -2.4 | 50.1 | –
26 | CN(C)CCCNc1cc(O)c2ncccc2c1.O=C(O)C(F)(F)F [NCGC00183792-01] | – | – | – | -32 | -2.4 | 56.2 | –
27 | CN1CCN(c2ncc3nc(-c4cn(C)c5ccccc45)c(=O)n(Cc4cccs4)c3n2)CC1.O=C(O)C(F)(F)F [NCGC00012779-02] | – | – | – | -27 | – | 50.1 | -2.4
28 | O=C(Nc1ccc(S(=O)(=O)N2CCOCC2)cc1)c1ccc(CN2CCCc3ccccc32)cc1.O=C(O)C(F)(F)F [NCGC00348355-01] | – | – | – | -15 | – | 50.1 | -2.4
29 | O=c1[nH]c2cc(C(F)(F)F)ccc2n1-c1cc(C(F)(F)F)ccc1O [NCGC00015720-07] | -30 | -2.4 | 44.7 | – | – | – | –
30 | C=C1C(=O)O[C@@H]2[C@H]3C(C)=CC(=O)C3=C(C)CC[C@@H]12 [NCGC00485131-01] | -24 | -1.4 | 10 | – | – | – | –
31 | Fc1ccc(C(c2ccc(F)cc2)N2CCN(C/C=C/c3ccccc3)CC2)cc1 [NCGC00018102-06] | – | – | – | -167 | -2.1 | 19.2 | –
32 | CCCCCCCc1ccc(CCc2cccc(O)c2C(=O)O)cc1 [NCGC00263121-01] | – | – | – | -33 | – | 24.1 | -3
33 | O=C(O)C(F)(F)F.O=C(c1cnc(N2CCCCC2)c2ccccc12)N1CCN(c2ccccc2)CC1 [NCGC00262736-01] | – | – | – | -64 | -3 | 31.6 | –
34 | C/C=C/C=C/c1cc2c(C=O)c(O)c(CC=C(C)C)cc2o1 [NCGC00386103-01] | -28 | -2.4 | 63.1 | – | – | – | –
35 | O=C(/C=C/c1ccccc1)OC[C@H]1O[C@@H](OC(=O)c2cc(O)c(O)c(O)c2)[C@H](O)[C@@H](O)[C@@H]1O [NCGC00380690-01] | -20 | -1.4 | 8.9 | – | – | – | –
36 | Cn1cc(-c2cnc3ccc4ccc(CS(=O)(=O)NCc5ccccn5)cc4c(=O)c3c2)cn1 [NCGC00378567-02] | -17 | -1.4 | 10 | – | – | – | –
37 | CC(=O)Nc1sc2c(c1-c1nc3ccccc3s1)CCN(C(C)C)C2 [NCGC00183664-03] | – | – | – | -54 | – | 50.1 | -2.2
38 | O=C(O)C(F)(F)F.OCc1ccc(-c2ccc3ncnc(N4CCOCC4)c3c2)o1 [NCGC00238384-01] | – | – | – | -42 | – | 44.7 | -2.2
39 | CN(C)c1ccc(C(=C2C=CC(=[N+](C)C)C=C2)c2ccccc2)cc1.CN(C)c1ccc(C(=C2C=CC(=[N+](C)C)C=C2)c2ccccc2)cc1.O=C(O)C(=O)O.O=C([O-])C(=O)O.O=C([O-])C(=O)O [NCGC00013058-02] | – | – | – | -53 | – | 100 | -3
40 | CC(=O)c1c(O)c(C)c(O)c(Cc2c(O)c3c(c(C(=O)/C=C/c4ccccc4)c2O)OC(C)(C)C=C3)c1O [NCGC00025228-08] | – | – | – | -45 | -1.2 | 28.2 | –
